Laboratory results from ChEMBL document CHEMBL5034031, “Discovery of Next-Generation Tropomyosin Receptor Kinase Inhibitors for Combating Multiple Resistance Associated with Protein Mutation” (J Med Chem, 2021).

Columns and labels:
[1] = target: ALK tyrosine kinase receptor (Homo sapiens) (UniProt Q9UM73); assay: Inhibition of ALK (unknown origin) at 1 uM relative to control
[2] = Toxicity in BALB/c nude mouse xenografted with mouse BAF3 cells harboring TMP3 fused TRKA G595R mutant assessed as mortality at 30 mg/kg, po administered twice daily for 12 to […] consecutive days; type: organism-based; details: in vivo, time 12-14 day
[3] = target: High affinity nerve growth factor receptor (Homo sapiens, UniProt P04629, G595R)
[4] = target: NT-3 growth factor receptor (Homo sapiens) (UniProt Q16288); assay: Inhibition of TRKC (unknown origin) at 1 uM relative to control
[5] = Plasma protein binding in rat; type: ADME, cell-free; details: read-out: PPB (converted)
[6] = Clearance in Beagle dog at 5 mg/kg, ig measured upto 24 hrs by LC-MS/MS analysis; type: ADME, organism-based, Canis lupus familiaris; details: in vivo, po
[7] = target: High affinity nerve growth factor receptor (Homo sapiens, UniProt P04629); assay: Inhibition of TRKA (unknown origin) at 1 uM relative to control
[8] = Half life in Beagle dog at 5 mg/kg, ig measured upto 24 hrs by LC-MS/MS analysis; type: ADME, organism-based, Canis lupus familiaris; details: in vivo, po
BaF3 [9] = assay: animal or person; type: functional; details: Mus musculus, BaF3, po; dose 15 mg/kg; time 12-14 day; read-out: TGI
[10] = target: Dual specificity protein kinase CLK2 (Homo sapiens) (UniProt P49760); assay: Inhibition of CLK2 (unknown origin) at 1 uM relative to control
BaF3 [11] = assay: Antitumor activity against mouse BAF3 cells harboring TMP3 fused wild type TRKA xenografted in BALB/c nude mouse assessed as tumor growth inhibition at 5 mg/kg, po administered twice daily for 12 to […] consecutive days; type: functional; details: time 12-14 day, read-out: TGI
[12] = target: Inhibitor of nuclear factor kappa-B kinase subunit beta (Homo sapiens) (UniProt O14920); assay: Inhibition of IKBKB (unknown origin) at 1 uM relative to control
[13] = Toxicity in BALB/c mouse xenografted with mouse BAF3 cells harboring TMP3 fused wild type TRKA assessed as body weight loss at 15 mg/kg, po administered twice daily for 12 to 14 consecutive days; type: organism-based; details: in vivo, time 12-14 day
[14] = Oral bioavailability in Sprague-Dawley rat at 5 mg/kg measured upto 24 hrs by LC-MS/MS analysis; type: ADME, organism-based; details: in vivo
hERG (KCNH2) = hERG (KCNH2) (Homo sapiens, UniProt Q12809); assay: Inhibition of hERG at 10 uM relative to control
[15] = target: Tyrosine-protein kinase JAK1 (Homo sapiens) (UniProt P23458); assay: Inhibition of JAK1 (unknown origin) at 1 uM relative to control
[16] = target: Epidermal growth factor receptor (Homo sapiens) (UniProt P00533); assay: Inhibition of EGFR (unknown origin) at 1 uM relative to control
BaF3 [17] = assay: Antiproliferative activity against mouse BAF3 cells transfected with LMNA-TRKA G595R mutant assessed as cell viability incubated for 72 hrs by CCK8 assay; type: functional, cell-based; details: BaF3, 72 h
BaF3 [18] = assay: Antiproliferative activity against mouse BaF3 cells transfected with ETV6-wild type TRKC assessed as cell viability incubated for 72 hrs by CCK8 assay; type: functional, cell-based; details: BaF3, 72 h
[19] = target: Misshapen-like kinase 1 (Homo sapiens) (UniProt Q8N4C8); assay: Inhibition of MINK1 (unknown origin) at 1 uM relative to control
[20] = target: Insulin-like growth factor 1 receptor (Homo sapiens) (UniProt P08069); assay: Inhibition of IGF1R (unknown origin) at 1 uM relative to control
[21] = Cmax in Beagle dog at 1 mg/kg, iv measured upto 24 hrs by LC-MS/MS analysis; type: ADME, organism-based, Canis lupus familiaris; parameters: route intravenous, dose 1 mg/kg, time <=24; details: in vivo
[22] = target: Serine/threonine-protein kinase PLK1 (Homo sapiens) (UniProt P53350); assay: Inhibition of PLK1 (unknown origin) at 1 uM relative to control
[23] = AUC(0 to infinity) in Beagle dog at 5 mg/kg, ig measured upto 24 hrs by LC-MS/MS analysis; type: ADME, organism-based, Canis lupus familiaris; parameters: route […], dose 5 mg/kg, time <=24; details: in vivo, po
[24] = target: NT-3 growth factor receptor (Homo sapiens, UniProt Q16288, G623R)
[25] = target: Mitogen-activated protein kinase 3 (Homo sapiens) (UniProt P27361); assay: Inhibition of ERK1 (unknown origin) at 1 uM relative to control
BaF3 [26] = assay: Antitumor activity against mouse BAF3 cells harboring ETV6 fused TRKC G623R mutant xenografted in BALB/c nude mouse assessed as tumor growth inhibition at 30 mg/kg, po administered twice daily for 12 to […] consecutive days; type: functional; details: time 12-14 day, read-out: TGI
[27] = AUC(0 to infinity) in Sprague-Dawley rat at 1 mg/kg, iv measured upto 24 hrs by LC-MS/MS analysis; type: ADME, organism-based; parameters: route intravenous, dose 1 mg/kg, time <=24; details: in vivo
[28] = AUC(0 to infinity) in Beagle dog at 1 mg/kg, iv measured upto 24 hrs by LC-MS/MS analysis; type: ADME, organism-based, Canis lupus familiaris; parameters: route intravenous, dose 1 mg/kg, time <=24; details: in vivo
[29] = target: Proto-oncogene tyrosine-protein kinase ROS (Homo sapiens) (UniProt P08922); assay: Inhibition of ROS1 (unknown origin) at 1 uM relative to control
[30] = Volume of distribution in Beagle dog at 1 mg/kg, iv measured upto 24 hrs by LC-MS/MS analysis; type: ADME, organism-based, Canis lupus familiaris; details: in vivo, read-out: Vz
[31] = target: [Pyruvate dehydrogenase (acetyl-transferring)] kinase isozyme 1, mitochondrial (Homo sapiens) (UniProt Q15118); assay: Inhibition of PDK1 (unknown origin) at 1 uM relative to control
[32] = Clearance in Sprague-Dawley rat at 5 mg/kg, ig measured upto 24 hrs by LC-MS/MS analysis; type: ADME, organism-based; details: in vivo, po
BaF3 [33] = assay: Antiproliferative activity against mouse BaF3 cells transfected with ETV6-wild type TRKA assessed as cell viability incubated for 72 hrs by CCK8 assay; type: functional, cell-based; details: BaF3, 72 h
[34] = target: RAC-alpha serine/threonine-protein kinase (Homo sapiens) (UniProt P31749); assay: Inhibition of AKT1 (unknown origin) at 1 uM relative to control
[35] = Clearance in Beagle dog at 1 mg/kg, iv measured upto 24 hrs by LC-MS/MS analysis; type: ADME, organism-based, Canis lupus familiaris; details: in vivo
[36] = Clearance in Sprague-Dawley rat at 1 mg/kg, iv measured upto 24 hrs by LC-MS/MS analysis; type: ADME, organism-based; details: in vivo
[37] = target: Proto-oncogene tyrosine-protein kinase Src (Homo sapiens) (UniProt P12931); assay: Inhibition of SRC (unknown origin) at 1 uM relative to control
[38] = target: Tyrosine-protein kinase ABL2 (Homo sapiens) (UniProt P42684); assay: Inhibition of ABL2 (unknown origin) at 1 uM relative to control
[39] = Oral bioavailability in Beagle dog at 5 mg/kg measured upto 24 hrs by LC-MS/MS analysis; type: ADME, organism-based, Canis lupus familiaris; details: in vivo
[40] = target: PAS domain-containing serine/threonine-protein kinase (Homo sapiens) (UniProt Q96RG2); assay: Inhibition of PASK (unknown origin) at 1 uM relative to control

Sequence of NT-3 growth factor receptor (Homo sapiens) (Q16288 32-839 limits assumed): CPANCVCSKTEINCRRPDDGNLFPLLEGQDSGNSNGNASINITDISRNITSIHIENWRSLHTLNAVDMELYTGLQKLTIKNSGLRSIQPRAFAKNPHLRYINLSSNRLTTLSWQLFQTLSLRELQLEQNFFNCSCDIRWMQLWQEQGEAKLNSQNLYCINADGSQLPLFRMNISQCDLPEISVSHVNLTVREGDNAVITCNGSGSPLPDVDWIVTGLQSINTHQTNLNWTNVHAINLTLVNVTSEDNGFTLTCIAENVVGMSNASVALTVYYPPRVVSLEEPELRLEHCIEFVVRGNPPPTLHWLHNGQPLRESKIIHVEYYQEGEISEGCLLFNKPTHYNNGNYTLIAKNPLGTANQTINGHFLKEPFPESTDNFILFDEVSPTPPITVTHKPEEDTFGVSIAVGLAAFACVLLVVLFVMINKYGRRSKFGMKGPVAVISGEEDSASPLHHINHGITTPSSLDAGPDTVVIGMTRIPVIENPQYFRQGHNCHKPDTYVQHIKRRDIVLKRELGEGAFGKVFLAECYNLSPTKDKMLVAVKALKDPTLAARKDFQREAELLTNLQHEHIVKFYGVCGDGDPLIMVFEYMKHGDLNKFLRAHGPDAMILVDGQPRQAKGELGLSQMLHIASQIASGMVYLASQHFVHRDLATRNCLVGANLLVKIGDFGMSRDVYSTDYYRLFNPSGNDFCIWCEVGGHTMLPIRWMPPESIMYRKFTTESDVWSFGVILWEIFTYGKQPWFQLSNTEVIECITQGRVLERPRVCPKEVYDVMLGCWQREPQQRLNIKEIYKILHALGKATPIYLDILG
Sequence of High affinity nerve growth factor receptor (Homo sapiens, UniProt P04629, G595R) (P04629 33-796 G595R limits assumed): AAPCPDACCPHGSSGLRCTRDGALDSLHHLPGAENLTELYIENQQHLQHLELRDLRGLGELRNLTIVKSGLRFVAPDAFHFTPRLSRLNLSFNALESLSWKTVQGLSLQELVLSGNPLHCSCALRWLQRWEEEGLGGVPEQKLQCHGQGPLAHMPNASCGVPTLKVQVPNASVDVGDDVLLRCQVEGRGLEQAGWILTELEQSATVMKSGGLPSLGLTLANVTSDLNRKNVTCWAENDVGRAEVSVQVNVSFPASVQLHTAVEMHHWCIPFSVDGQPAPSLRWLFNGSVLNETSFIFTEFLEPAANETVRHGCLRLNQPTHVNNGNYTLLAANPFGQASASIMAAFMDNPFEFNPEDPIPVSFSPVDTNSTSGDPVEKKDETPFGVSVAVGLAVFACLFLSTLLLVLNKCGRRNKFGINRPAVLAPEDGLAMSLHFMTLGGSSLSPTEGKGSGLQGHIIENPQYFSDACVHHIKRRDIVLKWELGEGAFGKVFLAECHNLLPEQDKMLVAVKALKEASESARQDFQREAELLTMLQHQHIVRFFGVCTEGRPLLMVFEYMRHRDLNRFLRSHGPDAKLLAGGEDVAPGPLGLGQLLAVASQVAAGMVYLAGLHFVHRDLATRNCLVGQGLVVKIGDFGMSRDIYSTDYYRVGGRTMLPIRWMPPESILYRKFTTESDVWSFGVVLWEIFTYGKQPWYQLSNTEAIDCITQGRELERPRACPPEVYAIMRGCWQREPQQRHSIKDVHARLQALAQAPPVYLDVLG
Sequence of Serine/threonine-protein kinase PLK1 (Homo sapiens) (P53350 whole entry): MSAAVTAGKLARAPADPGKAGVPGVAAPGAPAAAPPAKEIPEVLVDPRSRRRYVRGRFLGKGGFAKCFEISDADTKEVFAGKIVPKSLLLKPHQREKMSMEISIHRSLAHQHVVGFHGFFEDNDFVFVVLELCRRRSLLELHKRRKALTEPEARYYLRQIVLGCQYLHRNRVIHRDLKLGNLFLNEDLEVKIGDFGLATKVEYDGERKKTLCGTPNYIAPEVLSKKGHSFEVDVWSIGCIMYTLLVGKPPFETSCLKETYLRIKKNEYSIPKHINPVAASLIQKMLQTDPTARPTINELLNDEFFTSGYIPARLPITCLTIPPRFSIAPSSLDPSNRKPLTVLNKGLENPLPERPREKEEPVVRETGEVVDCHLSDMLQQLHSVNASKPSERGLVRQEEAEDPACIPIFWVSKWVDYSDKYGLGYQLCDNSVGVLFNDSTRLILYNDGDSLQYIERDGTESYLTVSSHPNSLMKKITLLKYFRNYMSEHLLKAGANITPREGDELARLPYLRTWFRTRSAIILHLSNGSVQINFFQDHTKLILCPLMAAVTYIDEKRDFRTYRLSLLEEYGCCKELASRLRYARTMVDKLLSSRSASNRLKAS
Sequence of Proto-oncogene tyrosine-protein kinase ROS (Homo sapiens) (P08922 whole entry): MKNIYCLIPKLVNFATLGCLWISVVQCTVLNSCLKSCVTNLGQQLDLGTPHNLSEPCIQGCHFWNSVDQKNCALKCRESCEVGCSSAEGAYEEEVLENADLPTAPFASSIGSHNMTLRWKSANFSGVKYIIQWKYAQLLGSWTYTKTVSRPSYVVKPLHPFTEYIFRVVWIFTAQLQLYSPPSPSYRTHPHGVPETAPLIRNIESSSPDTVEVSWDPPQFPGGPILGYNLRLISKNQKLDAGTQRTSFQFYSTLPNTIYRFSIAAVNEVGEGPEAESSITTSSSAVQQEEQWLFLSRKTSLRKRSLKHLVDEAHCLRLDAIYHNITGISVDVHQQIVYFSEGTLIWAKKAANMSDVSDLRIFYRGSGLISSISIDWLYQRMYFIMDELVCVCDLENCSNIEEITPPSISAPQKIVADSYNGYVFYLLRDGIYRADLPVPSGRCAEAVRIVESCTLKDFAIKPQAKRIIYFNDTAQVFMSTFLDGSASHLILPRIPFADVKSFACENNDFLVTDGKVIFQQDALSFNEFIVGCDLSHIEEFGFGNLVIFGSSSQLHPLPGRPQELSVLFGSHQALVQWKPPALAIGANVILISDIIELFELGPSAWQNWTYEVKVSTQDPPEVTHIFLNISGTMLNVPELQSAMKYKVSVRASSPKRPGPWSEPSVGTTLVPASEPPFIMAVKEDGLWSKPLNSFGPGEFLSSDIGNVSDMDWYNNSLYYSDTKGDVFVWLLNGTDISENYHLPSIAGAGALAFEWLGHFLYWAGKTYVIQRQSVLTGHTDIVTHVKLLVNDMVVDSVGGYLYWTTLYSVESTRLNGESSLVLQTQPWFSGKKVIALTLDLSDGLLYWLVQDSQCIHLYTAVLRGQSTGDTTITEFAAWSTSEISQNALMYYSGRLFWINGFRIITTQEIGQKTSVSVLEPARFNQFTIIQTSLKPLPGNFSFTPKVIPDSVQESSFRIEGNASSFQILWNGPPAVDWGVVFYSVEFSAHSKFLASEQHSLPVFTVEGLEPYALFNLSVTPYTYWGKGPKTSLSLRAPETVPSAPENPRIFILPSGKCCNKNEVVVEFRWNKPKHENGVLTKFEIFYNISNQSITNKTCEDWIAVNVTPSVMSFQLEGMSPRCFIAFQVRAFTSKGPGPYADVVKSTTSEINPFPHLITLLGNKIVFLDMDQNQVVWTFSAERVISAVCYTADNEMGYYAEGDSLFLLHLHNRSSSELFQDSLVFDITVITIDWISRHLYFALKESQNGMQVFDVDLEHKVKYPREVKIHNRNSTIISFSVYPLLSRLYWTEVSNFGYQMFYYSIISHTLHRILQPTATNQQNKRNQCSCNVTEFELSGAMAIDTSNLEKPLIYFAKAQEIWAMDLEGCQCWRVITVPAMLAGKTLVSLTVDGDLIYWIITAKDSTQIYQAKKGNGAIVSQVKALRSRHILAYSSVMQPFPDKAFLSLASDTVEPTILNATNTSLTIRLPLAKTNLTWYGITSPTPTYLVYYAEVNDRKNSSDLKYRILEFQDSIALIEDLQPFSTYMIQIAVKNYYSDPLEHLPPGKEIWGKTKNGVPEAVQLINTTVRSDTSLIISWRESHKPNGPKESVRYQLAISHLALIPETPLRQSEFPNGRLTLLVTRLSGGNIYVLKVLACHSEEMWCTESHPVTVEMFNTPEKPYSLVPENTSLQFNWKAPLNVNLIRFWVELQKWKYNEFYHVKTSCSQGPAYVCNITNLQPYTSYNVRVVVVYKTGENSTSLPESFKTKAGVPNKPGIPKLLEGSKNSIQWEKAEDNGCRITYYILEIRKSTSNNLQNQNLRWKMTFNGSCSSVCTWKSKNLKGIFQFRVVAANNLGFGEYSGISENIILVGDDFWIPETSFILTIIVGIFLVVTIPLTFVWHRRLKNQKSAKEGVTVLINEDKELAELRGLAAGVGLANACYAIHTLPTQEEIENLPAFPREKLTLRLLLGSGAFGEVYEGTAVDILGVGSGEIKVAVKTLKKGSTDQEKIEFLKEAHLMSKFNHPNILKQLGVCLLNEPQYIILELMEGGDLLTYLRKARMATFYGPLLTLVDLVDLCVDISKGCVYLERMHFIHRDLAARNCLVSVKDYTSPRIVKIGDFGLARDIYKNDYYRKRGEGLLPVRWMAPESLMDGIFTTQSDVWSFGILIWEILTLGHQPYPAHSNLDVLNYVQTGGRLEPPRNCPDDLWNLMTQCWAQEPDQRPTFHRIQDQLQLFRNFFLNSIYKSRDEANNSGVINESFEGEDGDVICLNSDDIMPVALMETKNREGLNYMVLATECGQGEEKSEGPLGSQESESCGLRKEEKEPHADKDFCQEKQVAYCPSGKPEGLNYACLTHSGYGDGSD
Sequence of Proto-oncogene tyrosine-protein kinase Src (Homo sapiens) (P12931 2-536 limits assumed): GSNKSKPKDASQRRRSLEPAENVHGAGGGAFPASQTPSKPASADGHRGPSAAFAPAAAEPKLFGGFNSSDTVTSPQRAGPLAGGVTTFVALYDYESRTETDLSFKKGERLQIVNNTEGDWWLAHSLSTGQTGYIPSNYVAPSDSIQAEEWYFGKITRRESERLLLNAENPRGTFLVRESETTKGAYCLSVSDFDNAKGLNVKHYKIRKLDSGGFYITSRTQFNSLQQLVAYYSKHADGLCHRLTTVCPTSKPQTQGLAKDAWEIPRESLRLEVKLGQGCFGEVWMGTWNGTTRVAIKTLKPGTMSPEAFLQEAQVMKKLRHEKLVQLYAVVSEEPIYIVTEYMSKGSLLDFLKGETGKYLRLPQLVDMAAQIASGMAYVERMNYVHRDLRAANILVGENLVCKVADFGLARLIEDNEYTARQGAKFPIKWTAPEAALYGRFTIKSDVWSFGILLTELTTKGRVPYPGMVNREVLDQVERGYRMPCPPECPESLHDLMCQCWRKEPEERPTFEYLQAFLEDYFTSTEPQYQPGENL
Sequence of NT-3 growth factor receptor (Q16288 32-839 G623R limits assumed): as the sequence (Q16288 32-839 limits assumed) above, with G592R counted along it

With `C[C@@H](Nc1ccn2ncc(-c3cnn(CCO)c3)c2n1)c1cc(F)ccc1OCC(F)F` the inhibition [1] was over 80%, the Activity [2] was “Non-Toxic” and the IC50 [3] was 0.2 nM. For the same compound, the inhibition [4] was over 80%, the fraction unbound [5] was 0.121 and the CL/F [6] was 9.17 mL/min/kg. It also gave an inhibition [7] of over 80%, a half-life [8] of 6.28 h and an inhibition in vivo at 15 mg/kg (BaF3 [9]) of 85%. It also gave an inhibition [10] of under 50%, an inhibition in vivo at 5 mg/kg (BaF3 [11]) of 64% and an inhibition [12] of under 50%. The Activity [13] was “Non-Toxic”, the bioavailability [14] was 49% and the inhibition at 10 µM (hERG (KCNH2)) was 23%. For the same compound, the inhibition [15] was over 80%, the inhibition [16] was under 50% and the IC50 (BaF3 [17]) was 1.6 nM. It also gave an IC50 (BaF3 [18]) of 0.2 nM, an inhibition [19] of under 50% and an inhibition [20] of under 50%. For the same compound, the Cmax [21] was 1500 ng/mL, the inhibition [22] was under 50% and the AUC(0-inf) [23] was 9630 ng·h/mL. It also gave an IC50 [24] of 0.6 nM, an inhibition [25] of under 50% and an inhibition in vivo at 30 mg/kg (BaF3 [26]) of 88%. It also gave an AUC(0-inf) [27] of 213 ng·h/mL, an AUC(0-inf) [28] of 2140 ng·h/mL and an inhibition [29] of over 80%. It also gave a Vd [30] of 4.94 L/kg, an inhibition [31] of under 50% and a CL/F [32] of 158 mL/min/kg. The IC50 (BaF3 [33]) was 0.2 nM, the inhibition [34] was under 50% and the clearance [35] was 7.83 mL/min/kg. For the same compound, the clearance [36] was 83.3 mL/min/kg, the inhibition [37] was under 50% and the inhibition [38] was over 80%. The bioavailability [39] was 92% and the inhibition [40] was under 50%.
